From patent publication US20210290553A1, “HC-1119 FORMULATION, PREPARATION METHOD AND USE THEREOF” (HINOVA PHARMACEUTICALS INC., priority 2018, published 2021)
Where two headings read alike, the source gives them in different places.

What was measured:
[1] = Permeability evaluated by Caco-2 cell model; assay type: in vitro ADME; conditions: human; 10 μM HC-1119, Caco-2 cell model; read-out: apparent permeability coefficient
Source text: (§1) Therefore, HC-1119 is an insoluble drug with high permeability, and belongs to the second category of BSC classification, and thus it is extremely important to improve the bioavailability thereof.

[2] = Clinical pharmacokinetic test of HC-1119 soft capsule; assay type: in vivo; conditions: human, plasma, oral, HC-1119 80 mg, day 84
Method: (1) Dosage: 80 mg/day (2 soft capsules of 40 mg)
(2) Administration way: continuous administration, once a day, the first administration being orally taken with empty stomach, thereafter no restriction on diet.
In the pharmacokinetic study, 9 subjects participated in this study.
The drug was taken by the subjects with empty stomach on the first day of the test, and 0˜0.5 h before taking the drug as well as 0.5 h, 0.75 h, 1 h, 2 h (±5 min), 4 h, 8 h, 12 h (±15 min), 24 h (±30 min) before administration on the second day), blood samples were collected, and 3 mL venous blood was drawn at each time point, then placed in an anticoagulant tube (the type of anticoagulant was determined according to the established analytical method).
0˜0.5 h before administration on day 7, 21, 35, 42, 56, 70, and 84 of continuous dosing, as well as 0.5 h, 0.75 h, 1 h, 2 h (±5 min), 4 h, 8 h, 12 h (±15 min), 24 h (±30 min, before administration on day 85) after administration on day 84, 3 mL venous blood was collected at each time point and placed in an anticoagulant tube (the type of anticoagulant was determined according to the established analytical method).
The sample should be centrifuged as soon as possible (about 3000 rpm, 10 min) to separate the plasma. The separated plasma samples need to be stored in two parts in a plasma cryotube. […]

[3] = Physical and chemical properties: solubility in water; assay type: physicochemical
Source text: as §1

[4] = 160 mg QD 49 days, cited from earlier work

Compound | Papp at 10 μM [1] | AUC at 84 day ([2]; read-out: steady-state AUC on day 84) | concentration at 84 day ([2]; read-out: steady-state Ctrough on day 84) | solubility in water [3] | AUCtau ([4]; Median) | CL/F ([4]; Median) | Cmax ([4]; Median) | Cmin ([4]; Median) | tmax ([4]; Median) | AUCtau ([4]; Min-Max) | Cmax ([4]; Min-Max) | Cmin ([4]; Min-Max) | tmax ([4]; Min-Max) | AUCtau ([4]; mean values) | CL/F ([4]; mean values) | Cmax ([4]; mean values) | Cmin ([4]; mean values) | Cmin ([4]; mean values, listed as enzalutamide)
[2H]C([2H])([2H])NC(=O)c1ccc(N2C(=S)N(c3ccc(C#N)c(C(F)(F)F)c3)C(=O)C2(C)C)cc1F [HC-1119, 4-{3-[4-cyano-3-(trifluoromethyl)phenyl]-5,5-dimethyl-4-oxo-2-thio-1-imidazolidinyl}-2-fluoro-N-trideuteromethylbenzamide] | 11.4 to 13.6 ×10⁻⁶ cm/s | 480 µg·h/mL | 18900 ng/mL | difficult to dissolve in water |  |  |  |  |  |  |  |  |  |  |  |  |  | 
CNC(=O)c1ccc(N2C(=S)N(c3ccc(C#N)c(C(F)(F)F)c3)C(=O)C2(C)C)cc1F [Enzalutamide, enzalutamide] |  |  |  |  | 295.6 µg·h/mL | 0.541 L/h | 15550 ng/mL | 11450 ng/mL | 61.2 min | 240 to 593 µg·h/mL | 11800 to 28000 ng/mL | 6920 to 22400 ng/mL | 31.2 to 181 min | 321.5 µg·h/mL | 0.520 L/h | 16590 ng/mL | 12000 ng/mL | 12000 ng/mL
